Measured values taken from paper PMC7577153, “Identification of Small-Molecule Inhibitors Targeting Porphyromonas gingivalis Interspecies Adherence and Determination of Their In Vitro and In Vivo Efficacies” (Antimicrobial Agents and Chemotherapy, 2020).
Read-outs that look alike come from different tables or passages of the source. Marks after values point to notes of the source that are not given here.

Legend:
HL60 cells [1] = conditions: 18 h
Experimental: (§2) The mouse macrophage cell line J774A.1 was grown in Dulbecco’s modified Eagle medium (DMEM) (Thermo Fisher Scientific, Waltham, MA) supplemented with 4.5 g/ml glucose, 10% fetal bovine serum (FBS), and 100 U/ml penicillin-streptomycin (Sigma-Aldrich, St. Louis, MO). HL60 (ATCC CCL240) cells were obtained from the American Type Culture Collection and cultured in Iscove’s modified Dulbecco’s medium (Sigma-Aldrich) supplemented with 20% fetal bovine serum (FBS) (Sigma-Aldrich).
(§3) The apoptotic activity of the compounds was determined using the phycoerythrin (PE) annexin V/dead cell apoptosis kit with Sytox green for flow cytometry (Invitrogen, Carlsbad, CA). Cells were grown in 12-well flat-bottom microtiter plates at an initial density 2 × 10^5 cells in 1.5-ml medium per well for 24 h. Following the incubation period, spent medium was replaced with fresh medium containing the desired concentration of the test compound and incubated for another 18 h. After trypsinization, cells were harvested by centrifuging at 250 × g for 4 min, and the cell pellet was suspended in 100 μl of binding buffer supplemented with 1 μl Sytox and 5 μl annexin V, followed by incubation at 37°C for 15 min. Samples were then diluted by adding 400-μl binding buffer, and flow cytometry was performed using a FACScalibur flow cytometer (Becton, Dickinson, Franklin Lakes, NJ), measuring the fluorescence emissions at 530 nm and 575 nm.

TIGK cells [2] = conditions: 18 h
Experimental: as §2, §3

[3] = tested on: P. gingivalis adherence to S. gordonii; test: organism not typed; format: cell-based, Porphyromonas gingivalis; conditions: for dose-dependent inhibition of P. gingivalis adherence and biofilm formation: 5, 10, 15, 25, and 40 μM; for inhibition at 40 µM: read-out: inhibition of P. gingivalis adherence to S. gordonii and biofilm formation
Experimental: Using the two species biofilm model described by Patil et al. ([19]), the in vitro effectiveness of the compounds was determined by their ability to inhibit P. gingivalis adherence to S. gordonii and subsequent biofilm formation at an initial concentration of 40 μM.
To quantify P. gingivalis adherence to S. gordonii, a two-species biofilm model was employed as previously described ([19], [33]). Briefly, 20 ml of an overnight culture of S. gordonii was centrifuged at 5600 × g (MIKRO 220R, Hettich Zentrifugen) for 10 min, and the harvested cells were washed with phosphate-buffered saline (PBS; 10 mM Na2HPO4, […], […], and 2.7 mM KCl [pH 7.2]). To label S. gordonii, the cell pellet was suspended in 1 ml of PBS containing 20 μl of 5 mg/ml of hexidium iodide (Molecular Probes; Eugene, OR) and incubated in the dark for 15 min at room temperature with gentle shaking. The labeled cells were than centrifuged at 5600 × g for 5 min and washed twice with PBS. Finally, the cells were suspended in PBS to a final optical density at 600 nm (OD600) of 0.6, and 1 ml of labeled S. gordonii cells was added to each well of a 12-well microtiter plate (Greiner Bio-one, Monroe, NC) containing a circular coverslip (Fisher Scientific, Hampton, NH). Plates were incubated at 37°C for 24 h under anaerobic conditions on a rotary shaker. On the following day, cells from a 10-ml overnight P. gingivalis culture were harvested as described above and fluorescent labeling was performed by incubating the cells in 1 ml PBS containing 20 μl of 5(6)-carboxyfluorescein N-hydroxysuccinimide ester (4 mg/ml) (Thermo Fisher, Waltham, MA) for 30 min in the dark at room temperature with gentle shaking. After being washed two times with PBS, the labeled cells were suspended in PBS at a final OD600 of 0.4. While this reaction was carried out, unattached S. gordonii cells were removed from each well by aspiration, and subsequently, 1 ml of labeled P. gingivalis cells alone or with the desired concentration of the compounds to be tested was added to each well of the microtiter plates. Plates were incubated at 37°C for 24 h under anaerobic conditions. The compounds that were tested were initially dissolved in dimethyl sulfoxide (DMSO) to generate a 1,000× stock solution and subsequently diluted in the cell suspensions to obtain the working concentration. For the control wells, DMSO without a test compound was added to a final concentration of 0.1% in order to maintain a constant DMSO concentration in all wells.
Unbound P. gingivalis cells were removed from each well by aspiration, and the coverslips were washed twice with 5 ml of PBS. Biofilms were then fixed with 4% paraformaldehyde for 5 min in the dark and washed two times with 5 ml of PBS. The coverslips were mounted on a glass slide (Sigma-Aldrich) containing a drop of Prolong gold anti-fade agent (Molecular Probes, Eugene, OR) and sealed with transparent nail polish.
Visualization of the biofilms was carried out by laser scanning confocal microscopy using an SP8 confocal microscope (Leica Microsystems, Inc., Buffalo Grove, IL), with the laser source settings at 488 nm and 552 nm to visualize P. gingivalis and S. gordonii, respectively. Images were collected using a Z plane scan for a depth of 25 μm using a Z step thickness of 0.7 μm. Background noise was reduced using the software that was supplied with the Leica SP8 microscope. Three-dimensional reconstruction of the Z plane scans and quantification of the red and green channel fluorescence were performed using Volocity 6.3 image analysis software (PerkinElmer, Waltham, MA).

HL60 cells [4] = test: LDH release (CytoTox 96); format: cell-based, human; conditions: 18 h
Experimental: (§1) The CytoTox 96 nonradioactive cytotoxicity assay (Promega Inc. Madison, WI) was used to determine extracellular lactate dehydrogenase activity (LDH) in TIGK, J774A.1, and HL60 cell cultures treated with the test compounds. […] After an 18-h incubation, the cell supernatant was collected by centrifugation at 250 × g for 4 min, and 50 μl of cell free supernatant was transferred into wells of a fresh 96-well microtiter plate. Subsequently, 50 μl of the LDH substrate was added in each well and incubated at room temperature for 30 min. Reactions were stopped by adding 50 μl of the stop solution according to the manufacturer’s protocol, and the endpoint was measured by determining optical density at 490 nm. Cells treated with culture medium containing 0.1% DMSO or with medium alone served as negative controls, and cells incubated with 15-μl lysis buffer (supplied by manufacturer) for 1 h served as a positive control for lysis. All samples were tested in triplicate.

TIGK cells [5] = test: LDH release (CytoTox 96); format: cell-based, human; conditions: 18 h
Experimental: as §1

TIGK cells [6] = test: total cellular ATP (CellTiterGlo); format: cell-based, human; conditions: 18 h, versus negative controls
Experimental: To determine the metabolic activity of cells, the total cellular ATP level was measured in cell culture samples using the CellTiterGlo reagent (Promega Inc. Madison, WI). Cells were grown as described above in the presence of the desired concentration of compounds. The spent medium was decanted, and cells were washed three times with PBS and subsequently incubated with 100 μl of the CellTiterGlo substrate. To facilitate the reaction, plates were incubated at room temperature for 2 min with shaking and for an additional 10 min without shaking. Total light production was measured using a Victor 3 multilabel plate reader (PerkinElmer).

J774A.1 cells = conditions: 18 h
Experimental: as §2, §3

| SMILES | Early apoptosis (%) (HL60 cells [1]; HL60, 5 μM) | Late apoptosis/necrosis (%) (HL60 cells [1]; HL60, 5 μM) | Live cells (%) (HL60 cells [1]; HL60, 5 μM) | Early apoptosis (%) (HL60 cells [1]; HL60, 20 μM) | Late apoptosis/necrosis (%) (HL60 cells [1]; HL60, 20 μM) | Live cells (%) (HL60 cells [1]; HL60, 20 μM) | Early apoptosis (%) (HL60 cells [1]; HL60, 40 μM) | Late apoptosis/necrosis (%) (HL60 cells [1]; HL60, 40 μM) | Live cells (%) (HL60 cells [1]; HL60, 40 μM) | Early apoptosis (%) (TIGK cells [2]; 5 μM) | Late apoptosis/necrosis (%) (TIGK cells [2]; 5 μM) | Live cells (%) (TIGK cells [2]; 5 μM) | Early apoptosis (%) (TIGK cells [2]; 20 μM) | Late apoptosis/necrosis (%) (TIGK cells [2]; 20 μM) | Live cells (%) (TIGK cells [2]; 20 μM) | Early apoptosis (%) (TIGK cells [2]; 40 μM) | Late apoptosis/necrosis (%) (TIGK cells [2]; 40 μM) | Live cells (%) (TIGK cells [2]; 40 μM) | dose-dependent inhibition of P. gingivalis adherence and biofilm formation [3] | inhibition at 40 µM [3] [%] | also measured |
| --- | --- | --- | --- | --- | --- | --- | --- | --- | --- | --- | --- | --- | --- | --- | --- | --- | --- | --- | --- | --- | --- |
| Cc1cc([C@H]2CCCN(CC(=O)NC3(C#N)CCCC3)C2)n[nH]1 [V8, N-(1-cyanocyclopentyl)-2-[3-(5-methyl-1H-pyrazol-3-yl)piperidin-1-yl] acetamide] | 2.9 | 5.6 | 91.8 | 3.7 | 5.0 | 91.3 | 2.4 | 6.7 | 88.4 | 3.1 | 4.2 | 91.6 | 2.1 | 3.5% | 92.8 | 2.4 | 3.4% | 92.8 | inhibited P. gingivalis adherence and biofilm formation in a dose-dependent manner | ≥ 40 | LDH release (HL60 cells [4]; HL-60 cells, 5, 20 and 40 μM): no significant effect; LDH release (TIGK cells [5]; versus negative controls): did not significantly differ from the negative controls; cellular ATP levels (TIGK cells [6]): did not significantly differ from the negative controls; Early apoptosis (%) (J774A.1 cells; 5 μM): 1.1%; Late apoptosis/necrosis (%) (J774A.1 cells; 5 μM): 8.3%; Live cells (%) (J774A.1 cells; 5 μM): 85.1%; Early apoptosis (%) (J774A.1 cells; 20 μM): 0.9%; Late apoptosis/necrosis (%) (J774A.1 cells; 20 μM): 8.0%; Live cells (%) (J774A.1 cells; 20 μM): 83.4%; Late apoptosis/necrosis (%) (J774A.1 cells; 40 μM): 9.1%; Live cells (%) (J774A.1 cells; 40 μM): 84.3% |
| O=C(Nc1ccccc1O)c1cccc(N2C(=O)c3ccc(C(=O)Nc4ccccc4O)cc3C2=O)c1 [N17, N-(2-hydroxyphenyl)-2-{3-[(2-hydroxyphenyl)carbamoyl]phenyl}-1,3-dioxo-2,3-dihydro-1H-isoindole-5-carboxamide] | 2.7 | 4.7 | 91.3 | 2.2 | 6.0 | 90.3 | 2.3 | 6.3 | 91.6 | 2.9 | 4.2 | 90.7 | 2.4 | 3.6% | 92.4 | 1.5 | 5.1% | 91.6 | inhibited P. gingivalis adherence and biofilm formation in a dose-dependent manner | 60 | IC50 ([3]; Porphyromonas gingivalis, read-out: 50% inhibitory concentration (IC50) of P. gingivalis adherence in vitro): ~18 µM; LDH release (HL60 cells [4]; HL-60 cells, 5, 20 and 40 μM): no significant effect; LDH release (TIGK cells [5]; versus negative controls): did not significantly differ from the negative controls; cellular ATP levels (TIGK cells [6]): did not significantly differ from the negative controls; Early apoptosis (%) (J774A.1 cells; 5 μM): 1.0%; Late apoptosis/necrosis (%) (J774A.1 cells; 5 μM): 6.1%; Live cells (%) (J774A.1 cells; 5 μM): 87.8%; Early apoptosis (%) (J774A.1 cells; 20 μM): 1.0%; Late apoptosis/necrosis (%) (J774A.1 cells; 20 μM): 6.9%; Live cells (%) (J774A.1 cells; 20 μM): 85.3%; Early apoptosis (%) (J774A.1 cells; 40 μM): 1.2%; Late apoptosis/necrosis (%) (J774A.1 cells; 40 μM): 6.6%; Live cells (%) (J774A.1 cells; 40 μM): 87.3% |
| Cl.N=c1n(CCN2CCCCC2)c2ccccc2n1CC(O)COc1ccc(Cl)cc1 (stereo not drawn) [N7, 1-(4-chlorophenoxy)-3-{2-imino-3-[2-(piperidin-1-yl)ethyl]-2,3-dihydro-1H-1,3-benzodiazol-1-yl}propan-2-ol hydrochloride] | 3.6 | 7.8 | 87.4 | 20.9 | 43.9 | 27.3 | 7.7 | 70.8 | 18.9 | 2.4 | 8.3 | 86.8 | 1.0 | 14.9* % | 74.5 | 5.9 | 40.7* % | 48.3 | inhibited P. gingivalis adherence and biofilm formation in a dose-dependent manner | 40 | LDH release (HL60 cells [4]; HL-60 cells, 20 μM and 40 μM): significant increases; LDH release (TIGK cells [5]; 40 μM): significant increase in LDH release; cellular ATP levels (TIGK cells [6]): significantly reduced cellular ATP levels; Early apoptosis (%) (J774A.1 cells; 5 μM): 2.5%; Late apoptosis/necrosis (%) (J774A.1 cells; 5 μM): 5.5%; Live cells (%) (J774A.1 cells; 5 μM): 83.9%; Early apoptosis (%) (J774A.1 cells; 20 μM): 16.9%; Late apoptosis/necrosis (%) (J774A.1 cells; 20 μM): 46.6%; Live cells (%) (J774A.1 cells; 20 μM): 33.4%; Early apoptosis (%) (J774A.1 cells; 40 μM): 24.9%; Late apoptosis/necrosis (%) (J774A.1 cells; 40 μM): 38.0%; Live cells (%) (J774A.1 cells; 40 μM): 36.2% |
